Measured values as given in patent publication US20250136607A1 (REGOR PHARMACEUTICALS, INC., priority 2021, published 2025).
Where two headings read alike, the source gives them in different places.

What was measured:
[1] = molecular target: Protein arginine deiminase 4 (PAD4) (Homo sapiens, UniProt Q9UM07); experiment: PAD4 ammonia release assay; type: biochemical
Outline: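 Ammonia release from BAEE substrate (2× mix 600 μM) was measured after 60 min at RT, following 15 min enzyme–compound preincubation (PAD4 2× 20 nM; pH 8.0 HEPES, 2 mM CaCl2, TCEP; 1.25% DMSO). Detection used OPA/DTT/EDTA for 120 min. % inhibition was taken versus reference-compound and DMSO controls; IC50 by four-parameter logistic fit.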

[2] = system: Citrullinated Histone H3 in dHL-60 cells (differentiated HL-60); experiment: dHL-60 Cit-H3 ELISA assay; type: cell-based, human; details: read-out: Average IC50 Abs
Protocol: Cell culture: HL-60 cells were grown in IMDM+20% FBS+1% PS. The suspension cells were split into 1:5 with fresh media every 2-3 days to maintain cell density between 1×10^5 to 1×10^6 viable cells/mL. HL-60 cells differentiation: HL-60 cells were diluted to 1×10^5 cells/mL and differentiated into neutrophil-like cells with 100 mM DMF treatment for 72 hours in flask at 37° C., 5% CO2. dHL-60 Cells plating: • 1) HL-60 cells were collected, and the plate was centrifuged at 1000 rpm for 5 min. • 2) The HL-60 cells were diluted to 1.25×10^6 cells/mL and plated into a 96-well plate with 80 μL/well (i.e., 1×10^5/well). The plate was then incubated in the incubator (5% CO2, 37° C.) for 30 min to allow cells to adhere. Compound treatment: • 1) Preparation of compound serial dilution (source plate 500×, final DMSO concentration: 0.2%): briefly, compounds were dissolved in 100% DMSO to a concentration of 20 mM (the stock solution) and a 3-fold serial dilution with 8-point doses was performed. • 2) A 10× compound solution was pipetted up and down; and 10 μL/well of compounds were added into each well and incubated for 30 min. Stimulation with 25 μM A23187: • 1) A solution of A23187 (250 μM) in complete IMDM (IMDM+10% FBS+1% PS) containing 150 U/mL S7 Nuclease was prepared. The obtained solution was added 10 μL/well into each well and incubated for 3 h in the incubator (5% CO2, 37° C.). • 2) The dHL-60 cells treated with 10 μL/well complete IMDM without A23187 worked as negative control. Sample preparation: • 1) EDTA (0.5 M, 2 μL/well) were added to all the wells to stop the reaction. • 2) The plate was centrifuged at 1000 rpm for 5 min to collect supernatant. • 3) The supernatant was then diluted at least 1:2 before adding to the ELISA plate for citrullinated H3 analysis.
The standard was reconstituted with 2 mL of Assay buffer to 500 ng/mL. The reconstituted standard was relatively unstable at 4° C. and should be used within 3 hr after reconstitution.
• 1) 100 μL of the standards or diluted samples were added to the wells on the ELISA plate. • 2) The plate was covered with Cover Sheet and incubated for 2 h at room temperaturert on an orbital shaker.
On the day of the assay, the reagent was thawed at room temperaturert. For one plate, 1.2 mL of HRP Conjugate were diluted into 10.8 mL of assay buffer. A diluted HRP Conjugate was prepared shortly before use.
• 1) The wells were empties and rinsed four times with 1× wash buffer with 300 μL/well (Low speed). The plate was inverted between wash steps to empty the plate. After the last wash, the inverted plate was gently tapped on absorbent paper to remove the residual wash buffer. • 2) 100 μL of the HRP Conjugate working solution were added to each well of the plate. • 3) The plate was covered with cover sheet and incubated for 1 h at RT on an orbital shaker.
• 1) The wells were empties and rinsed four times with 1× wash buffer with 300 μL/well (low speed). The plate was inverted between wash steps to empty the plate. […] 100 uL of HRP STOP solution were added to each well of the plate.
• 1) Wipe the bottom of the plate with a clean tissue to remove fingerprints, dirt, etc. • 2) Read the plate at a wavelength of 450 nm.
The percent (%) inhibition at each concentration of compound was calculated based on and relative to the signal in the HPE and ZPE wells contained within each assay plate. The HPE wells worked as […], and the ZPE wells didn't contain any compound but rather DMSO (final concentration=0.1%) as […]. The concentrations and % inhibition values for tested compounds were plotted and the concentration of compound required for 50% inhibition (IC50) was determined with a Four-parameter logistic dose response equation. The endpoint value (IC50) for the reference peptide/compound was evaluated in each experiment as a quality control measure. If the endpoint value is within 3-fold of the expected value then the experiment is deemed acceptable. […]

[3] = PAD4 ammonia release assay, BAEE substrate, 60 min at RT, read-out: Average IC50 Abs
[4] = Homo sapiens, HL-60, 3 h, stimulation with 25 μM A23187 for 3 h
[5] = PAD4 activity comparison, read-out: PAD4 Ammonia assay IC50
[6] = Homo sapiens, HL-60, stimulation with 25 μM A23187 for 3 h

Sequence of Protein arginine deiminase 4 (PAD4) (Q9UM07 whole entry): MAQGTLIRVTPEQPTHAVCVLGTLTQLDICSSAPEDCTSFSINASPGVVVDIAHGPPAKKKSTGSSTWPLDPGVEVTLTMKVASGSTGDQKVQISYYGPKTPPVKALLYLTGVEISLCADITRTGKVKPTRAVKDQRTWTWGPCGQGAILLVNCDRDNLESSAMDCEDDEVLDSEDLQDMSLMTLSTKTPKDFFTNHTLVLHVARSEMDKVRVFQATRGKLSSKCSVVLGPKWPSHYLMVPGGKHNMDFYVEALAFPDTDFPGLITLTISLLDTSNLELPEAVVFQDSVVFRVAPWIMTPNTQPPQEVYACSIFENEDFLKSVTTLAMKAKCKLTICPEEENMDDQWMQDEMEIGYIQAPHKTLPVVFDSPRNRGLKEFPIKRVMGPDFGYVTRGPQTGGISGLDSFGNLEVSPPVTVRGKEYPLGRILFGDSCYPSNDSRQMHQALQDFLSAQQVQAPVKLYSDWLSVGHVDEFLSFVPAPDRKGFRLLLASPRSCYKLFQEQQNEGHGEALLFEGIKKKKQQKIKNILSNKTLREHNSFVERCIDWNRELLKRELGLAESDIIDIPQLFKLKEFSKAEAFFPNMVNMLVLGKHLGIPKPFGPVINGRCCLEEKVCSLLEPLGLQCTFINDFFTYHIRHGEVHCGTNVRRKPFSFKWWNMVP

| SMILES | IC50 [1, 3] | IC50 [2, 4] | IC50 ([2]; stimulation with 25 μM A23187 for 3 h) | IC50 [1, 5] | IC50 [2, 6] |
| --- | --- | --- | --- | --- | --- |
| Cn1c(-c2cc3cccc4c3n2C(C2CC2)CN4CCCO)nc2cc(C(=O)N3C[C@H]4CC[C@@H]3[C@@H]4N)cc(F)c21 (mixture of isomers) [Example 111, [(1R,4R,7R)-7-amino-2-azabicyclo[2.2.1]heptan-2-yl]-[2-[11-cyclopropyl-9-(3-hydroxypropyl)-1,9-diazatricyclo[6.3.1.04,12]dodeca-2,4(12), 5,7-tetraen-2-yl]-7-fluoro-1-methyl-benzimidazol-5-yl]methanone] | ≤ 100 nM | ≤ 100 nM |  |  |  |
| Cn1c(-c2cc3ccc(C#N)c4c3n2C(C2CC2)CN4)nc2cc(C(=O)N3C[C@H]4CC[C@@H]3[C@@H]4N)cc(F)c21 (mixture of isomers) [Example 114, 5-(5-((1R,4R,7R)-7-amino-2-azabicyclo[2.2.1]heptane-2-carbonyl)-7-fluoro-1-methyl-1H-benzo[d]imidazol-2-yl)-3-cyclopropyl-2,3-dihydro-1H-pyrrolo[1,2,3-de]quinoxaline-9-carbonitrile] | ≤ 100 nM | ≤ 100 nM |  |  |  |
| CCC1CN(CCCO)c2cccc3cc(-c4nc5cc(C(=O)N6C[C@H](N)C[C@@H](F)C6)cc(OC)c5n4C)n1c23 (single isomer, unassigned) [Example 81] | 500 to 5000 nM |  | > 5000 nM |  |  |
| Cn1c(-c2cc3cccc4c3n2[C@@H](C2CC2)CN4)nc2cc(C(=O)N3C[C@H]4CC[C@@H]3[C@@H]4N)cc(F)c21 (single isomer, unassigned) [Example 110] | ≤ 100 nM | ≤ 100 nM |  |  |  |
| Cn1c(-c2cc3cccc4c3n2[C@@H](C2CC2)CN4CCCO)nc2cc(C(=O)N3C[C@H]4CC[C@@H]3[C@@H]4N)cc(F)c21 (single isomer, unassigned) [Example 112] | ≤ 100 nM | ≤ 100 nM |  |  |  |
| Cn1c(-c2cc3ccc(C#N)c4c3n2[C@@H](C2CC2)CN4)nc2cc(C(=O)N3C[C@H]4CC[C@@H]3[C@@H]4N)cc(F)c21 (single isomer, unassigned) [Example 115] | ≤ 100 nM | ≤ 100 nM |  |  |  |
| COc1cc(C(=O)N2CCC[C@@H](N)C2)cc2nc(-c3cc4cccc5c4n3CCN5)n(C)c12 [Example 2, (R)-(3-aminopiperidin-1-yl)(2-(2,3-dihydro-1H-pyrrolo[1,2,3-de]quinoxalin-5-yl)-7-methoxy-1-methyl-1H-benzo[d]imidazol-5-yl)methanone] | > 5000 nM | 500 to 5000 nM |  | 5430 nM |  |
| COc1cc(C(=O)N2CCC[C@@H](N)C2)cc2nc(-c3cc4cccc5c4n3CCN5CCO)n(C)c12 [Example 10, (R)-(3-aminopiperidin-1-yl)(2-(1-(2-hydroxyethyl)-2,3-dihydro-1H-pyrrolo[1,2,3-de]quinoxalin-5-yl)-7-methoxy-1-methyl-1H-benzo[d]imidazol-5-yl)methanone] | 500 to 5000 nM |  |  |  | 500 to 5000 nM |
| COc1cc(C(=O)N2CCC[C@@H](N)C2)cc2nc(-c3cc4cccc5c4n3CCN5CCCO)n(C)c12 [Example 12, (R)-(3-aminopiperidin-1-yl)(2-(1-(3-hydroxypropyl)-2,3-dihydro-1H-pyrrolo[1,2,3-de]quinoxalin-5-yl)-7-methoxy-1-methyl-1H-benzo[d]imidazol-5-yl)methanone] | 100 to 500 nM | 500 to 5000 nM |  |  |  |
| COc1cc(C(=O)N2C[C@H](N)C[C@@H](F)C2)cc2nc(-c3cc4cccc5c4n3CCN5CCCO)n(C)c12 [Example 13] | 100 to 500 nM | 500 to 5000 nM |  |  |  |
| COc1cc(C(=O)N2C[C@H](N)C[C@@H](F)C2)cc2nc(-c3cc4cccc5c4n3CCN5CCCO)n(CC(F)(F)F)c12 [Example 23, ((3R,5R)-3-amino-5-fluoropiperidin-1-yl)(2-(1-(3-hydroxypropyl)-2,3-dihydro-1H-pyrrolo[1,2,3-de]quinoxalin-5-yl)-7-methoxy-1-(2,2,2-trifluoroethyl)-1H-benzo[d]imidazol-5-yl)methanone] | 100 to 500 nM | 100 to 500 nM |  |  |  |
| CCn1cc(Cn2c(-c3cc4cccc5c4n3CCN5CCCO)nc3cc(C(=O)N4C[C@H](N)C[C@@H](F)C4)cc(OC)c32)cn1 [Example 34, ((3R,5R)-3-amino-5-fluoropiperidin-1-yl)(1-((1-ethyl-1H-pyrazol-4-yl)methyl)-2-(1-(3-hydroxypropyl)-2,3-dihydro-1H-pyrrolo[1,2,3-de]quinoxalin-5-yl)-7-methoxy-1H-benzo[d]imidazol-5-yl)methanone] | ≤ 100 nM |  |  |  | 500 to 5000 nM |
| COc1cc(C(=O)N2C[C@H](N)C[C@@H](F)C2)cc2nc(-c3cc4cccc5c4n3CCN5CCCO)n(Cc3cccs3)c12 [Example 37, ((3R,5R)-3-amino-5-fluoropiperidin-1-yl)(2-(1-(3-hydroxypropyl)-2,3-dihydro-1H-pyrrolo[1,2,3-de]quinoxalin-5-yl)-7-methoxy-1-(thiophen-2-ylmethyl)-1H-benzo[d]imidazol-5-yl)methanone] | ≤ 100 nM | 100 to 500 nM |  |  |  |
| CCn1cc(Cn2c(-c3cc4cccc5c4n3CCN5CCCO)nc3cc(C(=O)N4C[C@H](N)C[C@@H](F)C4)cc(F)c32)cn1 [Example 38, ((3R,5R)-3-amino-5-fluoropiperidin-1-yl)(1-((1-ethyl-1H-pyrazol-4-yl)methyl)-7-fluoro-2-(1-(3-hydroxypropyl)-2,3-dihydro-1H-pyrrolo[1,2,3-de]quinoxalin-5-yl)-1H-benzo[d]imidazol-5-yl)methanone] | ≤ 100 nM | 500 to 5000 nM |  |  |  |
| CCn1cc(Cn2c(-c3cc4cccc5c4n3CCN5)nc3cc(C(=O)N4C[C@H](N)C[C@@H](F)C4)cc(F)c32)cn1 [Example 40, ((3R,5R)-3-amino-5-fluoropiperidin-1-yl)(2-(2,3-dihydro-1H-pyrrolo[1,2,3-de]quinoxalin-5-yl)-1-((1-ethyl-1H-pyrazol-4-yl)methyl)-7-fluoro-1H-benzo[d]imidazol-5-yl)methanone] | 100 to 500 nM | 500 to 5000 nM |  |  |  |
| CC1CNc2cccc3cc(-c4nc5cc(C(=O)N6C[C@H]7CC[C@@H]6[C@@H]7N)ccc5n4C)n1c23 (stereo partly drawn) [Example 169, ((1R,4R,7R)-7-amino-2-azabicyclo[2.2.1]heptan-2-yl)(1-methyl-2-(3-methyl-2,3-dihydro-1H-pyrrolo[1,2,3-de]quinoxalin-5-yl)-1H-benzo[d]imidazol-5-yl)methanone] | 500 to 5000 nM |  |  | 550 nM |  |
| COc1cc(C(=O)N2C[C@H]3CC[C@@H]2[C@@H]3N)cc2nc(-c3cc4cccc5c4n3C(C3CC3)CN5)c(C)n12 (stereo partly drawn) [Example 170, ((1R,4R,7R)-7-amino-2-azabicyclo[2.2.1]heptan-2-yl)(2-(3-cyclopropyl-2,3-dihydro-1H-pyrrolo[1,2,3-de]quinoxalin-5-yl)-5-methoxy-3-methylimidazo[1,2-a]pyridin-7-yl)methanone] | > 5000 nM |  |  |  |  |
